The source of these data is patent publication US20080119530A1, “Method for treatment and prevention of ultraviolet light induced skin pathologies” (priority 2006, published 2008).

The subject of one assay is keratinocytes. In words: Apoptosis in keratinocytes (ssDNA Apoptosis ELISA). It is filed as cell-based, mouse. The source says:
(§1) Cell culture. […] Keratinocytes were transfected with Erbb2-targeted siRNA (32), Stealth RNAi Negative Control LO GC (Invitrogen, Carlsbad, Calif.), Cy3-conjugated Label IT RNAi Delivery Control (Mirus, Madison, Wis.) or sham transfection with TransIT-siQUEST Transfection Reagent (Mirus, Madison, Wis.). Plasmids with Cdc25a (Hassepass et al. 2003a) and EGFP (enhanced green fluorescent protein) cDNA were cotransfected with Lipofectamine Transfection Reagent (Invitrogen, Carlsbad, Calif.). Transfection efficiency was quantified by determining the proportion of the cells that incorporated the fluorescent Cy3-conjugated siRNA or GFP one day post-transfection. Keratinocytes homozygous for the Erbb2 loxP mutation were infected with Cre recombinase-expressing or empty adenoviral vectors in polybrene (Sigma).
Proliferation and apoptosis assays. Proliferation, survival and apoptosis were quantified in three replicate experiments. BrdU uptake was measured by a chemiluminescenit BrdU Cell Proliferation ELISA (Roche, Germany). Survival was quantified using 4-methylumbelliferyl heptanoate (MUH, Sigma, St. Louis, Mo.) degradation product fluorescence (ex: 360 nm, em:465 nm) as a marker for cell viability based on the method by Dotsika et al.^27 Cells were incubated in 100 μg/ml MUH in PBS for 30 minutes at 37° C. MUH fluorescence from wells lacking cells was subtracted from all samples. Apoptosis was measured using an ssDNA Apoptosis ELISA kit (Chemicon, Temecula, Calif.).
To investigate the role of Erbb2 in apoptosis following UV exposure, keratinocyte survival was measured in AG825-treated or Erbb2 siRNA-transfected cells and controls. As expected, apoptosis increased in all groups after UV exposure, as detected by ssDNA quantification.

The subject of the next assay is Erbb2. Kind of assay: Erbb2 expression in keratinocytes (immunoblot). It is filed as cell-based, mouse. Particulars: cultured keratinocytes, AG825.
From the text: (§2) For some experiments, the epidermis was separated from the skin by the heat shock method before homogenization. Keratinocytes were lysed in the same buffer. Membranes were immunoblotted with antibodies recognizing Erbb2, phospho-Erbb2 (Tyr^1248), EGFR, phospho-EGFR (Tyr^992), phospho-EGFR (Tyr^1173), phosphotyrosine, and Tall (Calbiochem, San Diego, Calif.). Binding of horseradish peroxidase-conjugated secondary antibodies (Cell Signaling, Beverly, Mass.) was visualized using chemiluminescent reagents (Pierce, Rockford, Ill.) and autoradiography. Densitometry was performed using IDScan software (Scanalytics, Fairfax, Va.).
as §1, with “Keratinocytes homozygous for the Erbb2 loxP mutation were infected with Cre recombinase-expressing or empty adenoviral vectors in polybrene (Sigma).” left out
On the technique in general: In western blotting, separated proteins are transferred to a membrane and probed.

The next assay deals with EGFR. In words: UV-induced phosphorylation of EGFR. It is filed as cell-based, mouse.
From the text: as §2
Several methods were developed to regulate Erbb2 expression and activity both in vitro and in vivo.

A further assay deals with Tg.AC mice. Kind of assay: UV-induced epidermal hyperplasia in mouse skin. The assay is classed as in vivo. From the text: Animals. Homozygous v-rasHa transgenic mice on an FVB/N background were used in in vivo experiments. To obtain keratinocytes with genetic ablation of Erbb2, loxP sites were inserted flanking exon 2 of Erbb2 such that splicing from exon1 to downstream introns upon Cre recombinase expression creates a frameshift mutation. Mice were maintained in our animal facility and provided with Purina lab chow (Nestle Purina PetCare, St. Louis, Mo.) and water ad libitum. The dorsal skin was clipped one day before treatment using electric clippers (Wahl, Sterling, II) and shaved on the day of treatment with a Remington Microscreen shaver (Madison, N.C.). […] The Ultraviolet-B TL 40W/12 RS bulbs (Philips, Somerset, N.J.) used emitted approximately 30% UVA, 70% UVB and <1% UVC, with a total output of 470 μW/cm^2, as measured with radiometric photodetector probes (Newport, Irvine, Calif.). For tumor experiments, homozygous Tg.AC mice were treated and exposed twice with an interval of 7 d. Tumor number was counted and tumor volume measured weekly using calipers. Skin-fold thickness was measured using calipers (Mitutoyo, Aurora, Ill.) to lightly pinch the dorsal skin. […]
The influence of Erbb2 on epidermal hyperplasia was measured during the first two weeks of the tumor experiment regimen. […]

Structures are written as SMILES.

For the compound `COc1cc(/C=C(\C#N)C(N)=O)cc(CSc2nc3ccccc3s2)c1O` [AG825], the “ssDNA (apoptosis), compared with DMSO-treated keratinocytes” value in the assay on keratinocytes (between 6 and 12 h post-UV) is on record as “similarly increased”. Further, the “apoptosis compared to DMSO-treated cells” value in the assay on keratinocytes (by 24 h after UV exposure) is “significantly increased”. Further, the “apoptosis after UV in vitro” value in the assay on keratinocytes (extent varies with the assay) is “small increase”. In addition, the “expression levels of Erbb2” value with Erbb2 is reported as “without altering”. For the same compound, in the assay with EGFR, the “EGFR phosphorylation at Tyr1173 after UV” value is recorded as “did not block” and the “UV-induced phosphorylation of EGFR-Tyr992” value is given as “blocked”. Further, the “effect on epidermal hyperplasia” value in the assay with Tg.AC mice (first week after UV irradiation) is “minimal”. The epidermal hyperplasia entry with Tg.AC mice (following the second UV irradiation) was “significantly suppressed”.
